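Assay format: 96-well plates, 48-hour exposure. Here, GI50 denotes the concentration required for 50% inhibition of growth.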 Calls of active or inactive are those of the source. Rule as the data show it: active = GI50 up to about 1.1 µM and inactive = higher.
Columns and labels:
Experiment in all cases: NCI tumour cell line growth inhibition, 48 h
A549 = system: A549
CCRF-CEM = system: CCRF-CEM
DU-145 = system: DU-145
HCC 2998 = system: HCC 2998
HCT-116 = system: HCT-116
HT-29 = system: HT-29
KM12 = system: KM12
NCI-H522 = system: NCI-H522
PC-3 = system: PC-3
SF-539 = system: SF-539
SK-MEL-28 = system: SK-MEL-28
SK-OV-3 = system: SK-OV-3
SN12C = system: SN12C
SW-620 = system: SW-620
UACC-257 = system: UACC-257

Measured: GI50

C/C(=N\Oc1cc(Cl)ncn1)c1ccccn1
inactive: A549 86.7 µM | CCRF-CEM 34.4 µM | DU-145 48.9 µM | HCC 2998 17.4 µM | HCT-116 > 100 µM | HT-29 95.7 µM | KM12 > 100 µM | NCI-H522 17.9 µM | PC-3 45.3 µM | SF-539 29.6 µM | SK-MEL-28 39.5 µM | SK-OV-3 92.5 µM | SN12C > 100 µM | SW-620 84.7 µM | UACC-257 99.8 µM
